Assay results: patent US9220706B2, “Inhibition of leukemic stem cells by PP2A activating agents” (Ohio State Innovation Foundation, priority 2012, dated 2015)

Tests used:
[1] = test system: CML cells; assay: Long term culture-initiating cell (LTC-IC) assay; type: cell-based, human; details: drug during first week of 6-week culture, vs untreated
Description: (§1) Long term culture-initiating cell (LTC-IC) and Colony-forming cell (CFC)/replating assays. 2×10^6 mononuclear CML cells were cultured with a 1:1 mixture of irradiated (80 Gy) IL-3/G-CSF-producing M2-10B4 and IL-3/KL-producing SI/SI murine fibroblasts in MyeloCult H5100 (StemCell Technologies) supplemented with hydrocortisone. Drugs were present during the first week of culture. Medium was replaced after 7 days, followed by weekly half-medium changes. After 6 weeks, adherent and floating cells were harvested and 5×10^4 cells plated into MethoCult H4435. LTC-IC-derived colonies were scored after 14 days. For CFC/replating, individual 14-day colonies from 10^3-10^5 CD34+/CD38− CML or 0.2×10^3-10^3 leukemic LSK cells plated in 0.9% H4435 or M3234 MethoCult, respectively, containing KL, G-CSF, GM-CSF, IL-3, IL-6, and Epo were replated and scored 2 weeks later.

[2] = test system: LSK SCLtTA/BCR-ABL1 cells; assay: CFC/replating assay, leukemic LSK cells; type: cell-based, mouse
Description: as §1

[3] = test system: BCR-ABL1^+ cells; assay: Intracellular phosphorylation of FTY720; type: cell-based
[4] = test system: GFP+ leukemic LSK and LT-HSC from SCLtTA/BCR-ABL1/GFP mice; assay: BM serial transplantation, transgenic BCR-ABL1 mice; type: in vivo, mouse
Description: BM Serial Transplantation Assays and In Vivo Effect of FTY720 on LT-HSCs from Transgenic BCR-ABL1 Mice. 2×10^6 GFP+ BM or 3×10^3 GFP+ BM-derived LSK (Lin^−/Sca-1^+/Kit^+) cells from 4-week induced leukemic SCLtTA/BCR-ABL1/GFP mice were transplanted into lethally-irradiated FVB/N mice. After the onset of neutrophilia (4 weeks post-transplant), mice were FTY720- (10 mg/kg/day, i.p.) or vehicle-treated for 4 weeks. The number of total GFP+ cells and GFP+ long-term (LT)-HSCs (Lin^−/Sca-1^+/Kit^+/FLt3^−/CD150^+/CD48^−) was measured with a LSRII flow cytometer. BM cells (2×10^6, 1×10^6 and 0.5×10^6) from treated and untreated animals (8 mice/group) mixed with 2×10^5 FVB/N BM cells were transplanted into lethally-irradiated secondary recipients. Engraftment (GFP^+ in PB>0.1%) was monitored every 4 weeks, and LT-HSC frequency was determined 16 weeks after secondary transplant using Poisson statistics. All animal studies were IACUC approved.

[5] = test system: CML cells (CFSE^max/CD34^+, CD34^+/CD38^−, CD34^+); assay: Annexin-V/7-AAD apoptosis staining; type: cell-based, human
Description: (§2) CFSE-mediated tracking of cell division. Carboxyfluorescein diacetate succinimidyl diester (CFSE)-stained cells (CellTrace CFSE Proliferation Kit: Invitrogen) were cultured in the presence of the indicated drugs (dosed at time zero and at day three), and the cells were harvested after 3 or 6 days in culture, and stained with anti-CD34 PE, Annexin-V V450, and the viability stain 7-AAD (BD Bioscience) to determine the number of viable quiescent cells (CFSEmax/CD34^+/7-AAD− cells) and the percentage of quiescent and apoptosis-committed cells (CFSEmax/CD34+/Annexin V+/7-AAD±). Cells were sorted into dividing and quiescent populations for Western blot analysis. For assessment of mouse quiescent leukemic HSCs, Lin- cells from 8 week-induced SCLtTA/BCR-ABL1 mice were CFSE-stained and used as described above. Quiescent cells (CFSE^max/CD34^+) were reported as a fraction of the initial number of CD34^+ cells.

[6] = test system: CD34+/CD38− CML cells; assay: CFC/replating assay, CML cells; type: cell-based, human
Description: as §1

[7] = target: T1, PP2A (Homo sapiens, UniProt P67775); assay: PP2A phosphatase assay; type: cell-based; details: CD34+/CD38− CML cells; FTY720 at concentration non-toxic for normal CD34+ progenitors
T1 construct: PP2Ac assays from whole cell lysates; endogenous in cells; host or cells: CD34+/CD38- and CD34+/CD38+ primary CML and normal bone-marrow cells; immunoprecipitated with Millipore PP2Ac antibody
T1 sequence (P67775 whole entry): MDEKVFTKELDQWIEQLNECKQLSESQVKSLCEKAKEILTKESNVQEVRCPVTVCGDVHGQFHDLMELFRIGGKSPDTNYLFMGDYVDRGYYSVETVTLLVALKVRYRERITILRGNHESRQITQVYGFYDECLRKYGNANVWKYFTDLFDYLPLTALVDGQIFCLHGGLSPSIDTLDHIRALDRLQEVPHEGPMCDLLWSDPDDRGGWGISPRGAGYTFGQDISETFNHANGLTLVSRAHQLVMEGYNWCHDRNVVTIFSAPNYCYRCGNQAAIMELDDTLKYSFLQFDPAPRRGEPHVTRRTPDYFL
Description: PP2A phosphatase assay. PP2Ac assays from whole cell lysates were carried out using the PP2Ac immunoprecipitation phosphatase assay kit (Millipore). Briefly, protein lysates (50 μg) in 100 μl of 20 mM Hepes. pH 7.0, 100 mM NaCl, 5 μg of PP2Ac antibody (Millipore), and 25 μl of Protein A-agarose were added to 400 μl of 50 mM Tris, pH 7.0, 100 mM CaCl2, and IPs were carried out at 4° C. for 2 h. IPs were used in the phosphatase reaction according to the manufacturer's protocol.

[8] = test system: CFSE^max/CD34^+ NBM cells; assay: CFSE-mediated tracking of quiescent cells, normal bone marrow; type: cell-based, human
Description: as §2

[9] = FTY720 10 mg/kg/day i.p., 4-week treatment

Structure (SMILES): CCCCCCCCc1ccc(CCC(N)(CO)CO)cc1 [FTY720]
- inhibition of LTC-ICs [1]: 60-70%
- reduction in replating efficiency [2]: 70-90%
- intracellular FTY720 remaining unphosphorylated [3]: more than 90%
- secondary recipients with leukemic engraftment ([4]; BM from treated mice, Table I Exp 1): 25%
- Engraftment-positive at 16 weeks (>0.1% GFP+) ([4]; Experiment #1, cell dose in 2nd recipients 2,000,000): 2/8
- LT-HSC frequency ([4]; Experiment #2, Poisson statistics, 16 weeks after secondary transplant): 0.45 × 10^−6
- Engraftment-positive at 16 weeks (>0.1% GFP+) ([4]; Experiment #2, cell dose in 2nd recipients 500,000): 0/8
- Engraftment-positive at 16 weeks (>0.1% GFP+) ([4]; Experiment #2, cell dose in 2nd recipients 1,000,000): 3/7
- Engraftment-positive at 16 weeks (>0.1% GFP+) ([4]; Experiment #2, cell dose in 2nd recipients 2,000,000): 5/7
- reduction of GFP^+ (leukemic) LSK [4, 9]: ≥ 50%
- reduction of splenic and/or BM GFP^+ LT-HSC [4, 9]: ≥ 70%
- reduction of frequency of leukemic LT-HSCs ([4]; limiting dilution analysis, Table I Exp. 2): ~80%
- apoptosis of CD34^+ CML progenitors in combination with imatinib ([5]; CD34^+ CML progenitors n=10): synergizes with imatinib
- apoptosis of quiescent/HSC-enriched CML cells ([5]; CFSE^max/CD34^+ or CD34^+/CD38^− CML cells): triggered apoptosis
- reduction in replating efficiency [6]: 70-90%
- PP2A activity in leukemic HSCs [7]: restored PP2A activity at levels superimposable to those observed in the identical cell fraction from healthy donors
- effect on frequency/number of normal quiescent CFSE^max cells [8]: not influenced
